From patent publication US20120077818A1, “COMPOSITIONS COMPRISING TRANSNORSERTRALINE AND SEROTONIN RECEPTOR 1A AGONISTS/ANTAGONISTS AND USES THEREOF” (Sunovion Pharmaceuticals Inc., priority 2009, published 2012) come the findings set out here.

This assay has as its system dorsal raphe 5-HT neurons. In words: In vivo electrophysiological recordings of dorsal raphe (DR) 5-HT neurons. Details: species or system rat. The method, then:
Male Sprague Dawley rats (Charles River, St. Constant, QC) weighing 250 to 300 g, were used for the experiments. They were housed individually and kept under standard laboratory conditions (12:12 hour light/dark cycle with free access to food and water). All animals were handled according to the guidelines of the Canadian Council on Animal Care (CCAC) and protocols in this study were approved by the local Animal Care Committee (Ottawa Health Research Institute, Ottawa, ON, Canada).
Rats were anaesthetized with chloral hydrate (400 mg/kg; i.p.) and placed into a stereotaxic frame. The extracellular recordings of 5-HT neurons in the dorsal raphe (“DR”) were carried out using single-barrelled glass micropipettes (R&D Scientific Glass, Spencerville, Md.) preloaded with a 2 M NaCl solution. Their impedance typically ranged between 4-7 MΩ.
The single-barrelled glass micropipettes were positioned using the following coordinates (in mm from lambda): AP, +1.0 to 1.2; L, 0±0.1; V, 5 to 7. The presumed 5-HT neurons were then identified using the following criteria: a slow (0.5-2.5 Hz) and regular firing rate and long-duration (2-5 ms) bi- or triphasic extracellular waveform (Aghajanian and Vandermaelen, 1982b). […] This occasional firing pattern of 5-HT neurons was analyzed by spike interval burst analysis following the criteria set by Hajos et al. The onset of a burst was defined as the occurrence of two spikes with an interspike interval shorter than 0.005 s.
The percent of baseline firing rate were measured 60 seconds after systemic administration of the triple reuptake inhibitor. Various parameters were determined to examine the electrophysiological effects of co-administration of a transnorsertraline with WAY-100635. These parameters included the number of single spikes, bursts, cells per track and the firing rate of 5-HT neurons.
Electrophysiological data expressed as means±S.E.M of percent of baseline firing rate or as means±S.E.M of single spikes or bursts measured from the same neurons. Data were analyzed by using a one- or two-ways analysis of variance (ANOVA), with treatment, treatment and pre-treatment or treatment and brain region as main factors. Fisher's protected least significant difference test (Fisher's PLSD-test) was used to analyze the statistical significance between groups. The paired Student's t test was used in experiments comparing two groups. In each experiment, a level of p<0.05 was accepted as evidence for a statistically significant effect.

Where [1] appears, read: rats pre-treated with WAY-100635.

“Also recorded” adds a separate entry of the source.

As for `N[C@@H]1CC[C@@H](c2ccc(Cl)c(Cl)c2)c2ccccc21` [(1R,4S)-transnorsertraline, (1R,4S)-trans-4-(3,4-dichlorophenyl)-1,2-3,4-tetrahydro-1-naphthalenamine], under setting [1], the “number of bursts of 5-HT neurons (effect in words)” value is “significantly increased” and the “number of single spikes of 5-HT neurons (effect in words)” value is given as “significantly increased”. Further, the “DR 5-HT firing rate (effect in words)” value (rats pre-treated with WAY-100635, (1R,4S)-transnorsertraline 0.5-2 mg/kg iv) is “significant increase; also recorded: markedly increased”.

With `COc1ccccc1N1CCN(CCN(C(=O)C2CCCCC2)c2ccccn2)CC1` [WAY-100635, reference compound], for the setting “WAY-100635 alone, 100 μg/kg iv”, the “spontaneous firing rate of DR 5-HT neurons (effect in words)” value was “did not alter”. Moreover, the “spontaneous firing rate of DR 5-HT neurons” value (WAY-100635 alone, 100 μg/kg iv, printed as 1.3±0.1 vs 1.4±0.1 (n=8), in Hz (unit assumed)) is 1.4±0.1.
